The text below walks through data of ChEMBL document CHEMBL1134806, “Parallel solid-phase synthesis of nucleoside phosphoramidate libraries” (Bioorg Med Chem Lett, 2001).

The subject of experiment [1] is Hepatitis B virus. In words: Cytotoxic activity was determined against Hepatitis B virus (HBV) at 10 uM using HepG2-derived 2.2.15 cell lines. As to conditions: HepG2 2.2.15. Type of experiment: functional.
The test system of experiment [2] is Hepatitis B virus. In words: Inhibitory activity was determined against Hepatitis B virus (HBV) at 10 uM using HepG2-derived 2.2.15 cell lines. In kind it is functional, organism-based.

A value given as a limit tells only on which side of the number the result lay.

`Nc1nc(O)c2ncn([C@H]3C[C@H](O)[C@@H](COP(=O)(O)O[C@@H]4C[C@@H](n5cnc6c(N)ncnc65)O[C@H]4COP(=O)(O)NC4CCCN4)O3)c2n1` (some centres undefined) gave a cytotoxic concentration (CC50) in the experiment with Hepatitis B virus [1] of over 300 µM. For the same compound, the IC50 in the experiment on Hepatitis B virus [2] was 2.1 µM.
On the same counts, the results for `COc1ccc(CCNP(=O)(O)OC[C@H]2O[C@@H](n3ccc(=O)[nH]c3=O)[C@H](OC)[C@@H]2OP(=O)(O)OC[C@H]2O[C@@H](n3cnc4c(N)ncnc43)C[C@@H]2O)cc1OC` are over 300 µM and 4.4 µM.
